Biological target: hQC (Homo sapiens, UniProt Q16769)
Experiment: Fluorometric (fluorescent) assay of hQC inhibition, IC50
Assay type: biochemical
Details: hQC inhibition; read-out: IC50
Method in brief: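 Two coupled fluorometric formats at 30° C, pH 8.0 Tris/HCl with EDTA: H-Gln-βNA at 0.2 mM read at 320/410 nm, or H-Gln-AMC at varied levels read at 380/460 nm, each started by adding QC.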

Sequence of hQC (Q16769 29-361): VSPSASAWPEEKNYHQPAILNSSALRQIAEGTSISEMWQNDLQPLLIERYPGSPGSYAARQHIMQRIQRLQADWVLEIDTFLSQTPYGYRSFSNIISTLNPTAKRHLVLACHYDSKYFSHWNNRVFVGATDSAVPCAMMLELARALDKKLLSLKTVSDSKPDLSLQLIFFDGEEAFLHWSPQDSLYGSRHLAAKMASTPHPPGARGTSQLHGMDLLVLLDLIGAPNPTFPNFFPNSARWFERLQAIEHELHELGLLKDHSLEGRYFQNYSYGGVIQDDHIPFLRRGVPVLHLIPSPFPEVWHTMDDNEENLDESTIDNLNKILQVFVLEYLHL

Structure (SMILES)	IC50
Oc1ccc(C(Nc2ccc3[nH]cnc3c2)c2nnnn2Cc2ccc(Cl)cc2)cc1 (stereo not shown) [compound 191, 4-{(1H-Benzoimidazol-5-ylamino)-[1-(4-chloro-benzyl)-1H-tetrazol-5-yl]-methyl}-phenol]	3.1 µM
CCOC(=O)C1CCCCC1n1nnnc1C(Nc1ccc2[nH]cnc2c1)c1cccc(OC)c1 (stereo not shown) [compound 192]	8.5 µM
Oc1ccc(Cl)cc1C(Nc1ccc2[nH]cnc2c1)c1nnnn1C1CCCCC1 (stereo not shown) [compound 193, 2-[(1H-Benzoimidazol-5-ylamino)-(1-cyclohexyl-1H-tetrazol-5-yl)-methyl]-4-chloro-phenol]	5.8 µM
O=C1CCCN1CCCn1nnnc1C(Nc1ccc2[nH]cnc2c1)c1ccc(Br)cc1 (stereo not shown) [compound 194, 1-(3-{5-[(1H-Benzoimidazol-5-ylamino)-(4-bromo-phenyl)-methyl]-tetrazol-1-yl}-propyl)-pyrrolidn-2-one]	8.5 µM
CCOC(=O)C1CCCCC1n1nnnc1C(Nc1ccc2[nH]cnc2c1)c1cccc(C(=O)OC)c1 (stereo not shown) [compound 195, 3-{(1H-Benzoimidazol-5-ylamino)-[1-(2-ethoxycarbonyl-cyclohexyl)-1H-tetrazol-5-yl]-methyl}-benzoic acid methyl ester]	5.8 µM
CCOC(=O)C1CCCCC1n1nnnc1C(Nc1ccc2[nH]cnc2c1)c1c[nH]c2cc(C)ccc12 (stereo not shown) [compound 196]	8.5 µM
O=[N+]([O-])c1cc(C(Nc2ccc3[nH]cnc3c2)c2nnnn2Cc2ccc(Cl)cc2)ccc1Cl (stereo not shown) [compound 197, (1H-Benzoimidazol-5-yl)-[[1-(4-chloro-benzyl)-1H-tetrazol-5-yl]-(4-chloro-3-nitro-phenyl)-methyl]-amine]	2.2 µM
CCc1ccc(C(Nc2ccc3[nH]cnc3c2)c2nnnn2C2CCCCC2)cc1 (stereo not shown) [compound 198, (1H-Benzoimidazol-5-yl)-[(1-cyclohexyl-1H-tetrazol-5-yl)-(4-ethyl-phenyl)-methyl]-amine]	4.9 µM
O=C(Cn1nnnc1C(Nc1ccc2[nH]cnc2c1)c1ccc(Br)cc1)N1CCc2ccccc2C1 (stereo not shown) [compound 199, 2-{5-[(1H-Benzoimidazol-5-ylamino)-(4-bromo-phenyl)-methyl]-tetrazol-1-yl}-1-(3,4-dihydro-1H-isoquinolin-2-yl)-ethanone]	2.2 µM
O=C(Cn1nnnc1C(Nc1ccc2[nH]cnc2c1)c1ccc(Br)cc1)NCCc1c[nH]c2ccccc12 (stereo not shown) [compound 200, 2-{5-[(1H-Benzoimidazol-5-ylamino)-(4-bromo-phenyl)-methyl]-tetrazol-1-yl}-N-[2-(1H-indol-3-yl)-ethyl]-acetamide]	2.2 µM
Brc1ccc(C(Nc2ccc3[nH]cnc3c2)c2nnnn2Cc2cccnc2)cc1 (stereo not shown) [compound 201, (1H-Benzoimidazol-5-yl)-[(4-bromo-phenyl)-(1-pyridin-3-ylmethyl-1H-tetrazol-5-yl)-methyl]-amine]	4 µM
CCOC(=O)C1CCCCC1n1nnnc1C(CC(C)c1ccc(C)o1)Nc1ccc2[nH]cnc2c1 (stereo not shown) [compound 202]	6.7 µM

Continued, values first:

IC50	Structure (SMILES)
2.2 µM	Brc1ccc(C(Nc2ccc3[nH]cnc3c2)c2nnnn2-c2ccccc2OCc2ccccc2)cc1 (stereo not shown) [compound 203, (1H-Benzoimidazol-5-yl)-[[1-(2-benzyloxy-phenyl)-1H-tetrazol-5-yl]-(4-bromo-phenyl)-methyl]-amine]
6.7 µM	CC(CC(Nc1ccc2[nH]cnc2c1)c1nnnn1-c1ccc(Oc2ccccc2)cc1)c1ccccc1 (stereo not shown) [compound 204, (1H-Benzoimidazol-5-yl)-{1-[1-(4-phenoxy-phenyl)-1H-tetrazol-5-yl]-3-phenyl-butyl}-amine]
2.2 µM	Clc1ccccc1Cn1nnnc1C(Nc1ccc2[nH]cnc2c1)c1ccc2nsnc2c1 (stereo not shown) [compound 205]
8.5 µM	O=[N+]([O-])c1ccc(-n2nnnc2C(Nc2ccc3[nH]cnc3c2)c2csc3ccccc23)cc1 (stereo not shown) [compound 206]
4 µM	Fc1cc(C(Nc2ccc3[nH]cnc3c2)c2nnnn2CCc2cccs2)ccc1Cl (stereo not shown) [compound 207, (1H-Benzoimidazol-5-yl)-{(4-chloro-3-fluoro-phenyl)-[1-(2-thiophen-2-yl-ethyl)-1H-tetrazol-5-yl]-methyl}-amine]
2.2 µM	CCCOc1cccc(C(Nc2ccc3[nH]cnc3c2)c2nnnn2C2CCCCC2C(=O)OCC)c1 (stereo not shown) [compound 208]
4 µM	COc1ccc(C(Nc2ccc3[nH]cnc3c2)c2nnnn2CC(=O)N2CCc3ccccc3C2)cc1 (stereo not shown) [compound 209, 2-{5-[(1H-Benzoimidazol-5-ylamino)-(4-methoxy-phenyl)-methyl]-tetrazol-1-yl}-1-(3,4-dihydro-1H-isoquinolin-2-yl)-ethanone]
2.2 µM	COc1ccc(C(Nc2ccc3[nH]cnc3c2)c2nnnn2-c2ccccc2OCc2ccccc2)cc1 (stereo not shown) [compound 210, (1H-Benzoimidazol-5-yl)-[[1-(2-benzyloxy-phenyl)-1H-tetrazol-5-yl]-(4-methoxy-phenyl)-methyl]-amine]
2.2 µM	c1ccc(-c2ccc(C(Nc3ccc4[nH]cnc4c3)c3nnnn3CCc3cccs3)cc2)nc1 (stereo not shown) [compound 211, (1H-Benzoimidazol-5-yl)-{(4-pyridin-2-yl-phenyl)-[1-(2-thiophen-2-yl-ethyl)-1H-tetrazol-5-yl]-methyl}-amine]
2.2 µM	CC(C)(C)OC(=O)Cn1nnnc1C(Nc1ccc2[nH]cnc2c1)c1ccc(-c2ccccn2)cc1 (stereo not shown) [compound 212, {5-[(1H-Benzoimidazol-5-ylamino)-(4-pyridin-2-yl-phenyl)-methyl]-tetrazol-1-yl}-acetic acid tert-butyl ester]

Reference: patent US7741354B2, “Inhibitors of glutaminyl cyclase” (Probiodrug AG, priority 2006, dated 2010)
